Entries after “also recorded” stand apart in the source; their conditions may differ.
Tests used:
[1] = test system: histone H3 and H4 acetylation in C3H 10T1/2 mouse fibroblasts; experiment: histone acetylation Western blot in mouse cells; type: cell-based
Text: Histones in mammalian cells show characteristic rates of turnover of acetylation, with a majority showing slower rates and a very minor fraction showing very fast turnover. This latter fraction has been associated with gene activation, and is defined by rapid hyperacetylation in the presence of deacetylase inhibitors such as Trichostatin A (TSA). In addition to SDS gels (FIG. 9A), Acid-Urea gels (AU, FIG. 9B) were used, on which loss of a positive charge upon lysine acetylation retards migration, producing a ladder of bands corresponding to integral changes in acetylation.
C3H 10T1/2 mouse fibroblasts were grown in DMEM with 10% FCS at 37° C. with 5% CO2. Confluent cultures were rendered quiescent in DMEM with 0.5% FCS for 18-20 h prior to treatment. […] Antibodies were used at the following concentrations: total H3 (1:10000; ab7834; Abcam); H4K12ac (1:2500; 06-761; Upstate). Rabbit anti-H3K9ac (1:10000) antibodies were generated in-house. Histones were isolated from cells by acid extraction, separated by SDS and acid-urea polyacrylamide gel electrophoresis and analyzed by Western blotting.

[2] = target: T1, p300 HAT (Homo sapiens, UniProt Q09472, DEL1529-1560/M1652G); experiment: direct radioactive p300 HAT assay (14C-acetyl-CoA transfer to H4-15); type: biochemical
T1 construct: A variant of the HAT domain of p300 (residues 1287 to 1652) was expressed as a fusion; a C-terminal peptide corresponding to residues 1653-1666 of p300; made in house; host or cells: E. coli BL21(RIL)-DE3; C-terminal peptide by solid phase synthesis
T1 sequence (Q09472 with tags, fused parts or gaps DEL1529-1560/M1652G limits assumed): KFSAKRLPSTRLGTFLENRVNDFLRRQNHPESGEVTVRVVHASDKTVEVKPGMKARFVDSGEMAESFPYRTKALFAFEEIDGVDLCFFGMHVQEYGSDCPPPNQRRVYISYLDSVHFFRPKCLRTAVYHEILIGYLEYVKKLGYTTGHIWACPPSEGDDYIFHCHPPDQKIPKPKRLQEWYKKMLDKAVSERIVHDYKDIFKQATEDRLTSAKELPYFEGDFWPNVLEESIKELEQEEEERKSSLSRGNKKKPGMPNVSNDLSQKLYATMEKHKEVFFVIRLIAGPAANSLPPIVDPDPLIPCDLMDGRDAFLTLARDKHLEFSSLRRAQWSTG
Protocol: In this assay, production of ^14C-labeled Ac-H4-15 is monitored electrophoretically. Reactions were performed in 20 mM HEPES, pH 7.9, and contained 5 mM DTT, 80 μM EDTA, 40 μg/mL BSA, 100 μM H4-15, and 5 nM p300. […] Reactions were incubated at 30° C. for 10 minutes, initiated with addition of a 1:1 mixture of 12 C-acetyl-CoA and 14 C-acetyl-CoA to a final concentration of 20 μM, and allowed to run for 10 min at 30° C. Reactions are then quenched with addition of 14% SDS (w/v). Turnover was kept below 10%. All compounds were screened in duplicate. Samples were then loaded onto a 16% Tris-Tricine gel along with a BSA standard and run at 140 V for 90 minutes. Gels were washed and dried, and exposed in a PhosphorImager cassette for ˜2 days. Bands corresponding to Ac-H4-15 were then quantified using ImageQuant.
Reactions were performed in 20 mM HEPES, pH 7.9, and contained 5 mM DTT, 80 μM EDTA, 40 μg/mL BSA, 100 μM […], and 5 nM p300. Putative inhibitors were added over a range of concentrations, with DMSO concentration kept constant (<5%). Reactions were incubated at 30° C. for 10 minutes, then initiated with addition of a 1:1 mixture of ^12C-acetyl-CoA and ^14C-acetyl-CoA to 20 μM. After […] at 30° C., reactions were quenched with 14% SDS (w/v). All concentrations were screened in duplicate. Gels were run, washed, dried, and exposed to a PhosphorImager plate as described above, and production of Ac-H4-15 quantified. Data were fit to the following equation to obtain IC50s. […]

[3] = test system: Mel-1 melanoma cells; experiment: combination with chemotherapy, total cell number; type: cell-based; conditions: 48 hours
Protocol: The cells were grown for 24 hours in medium. The cells were given fresh medium and either 1 μM of cisplatin or 200 μM of temozolamide was added. Total cell number was counted on Day 0, at 24 hours, and 48 hours after addition of cisplatin or temozolamide.
After 24 hours, the treated and mock-treated cells were given fresh medium, and the cells were treated with cisplatin or temozolamide for 48 hours.

[4] = test system: WM983A melanoma cells; experiment: 3H-thymidine incorporation, WM983A; conditions: 20 μM, 24 hours
[5] = cells pre-treated with 2 μM C646 for 24 hours, then 1 μM cisplatin or 200 μM temozolamide
[6] = mock-treated cells, 1 μM cisplatin or 200 μM temozolamide

## CC(/C=C/C(=O)NO)=C\[C@@H](C)C(=O)c1ccc(N(C)C)cc1 [TSA, Trichostatin A, reference compound]
[1]; TSA 33 nM, 30 minutes
  acetylation of H3 and H4: increased

## CC1=NN(c2ccc(C(=O)O)cc2)C(=O)/C1=C\c1ccc(-c2cc(C)c(C)cc2CO)o1 [Compound 6l, 4-(4,5-dihydro-4-((5-(2-(hydroxymethyl)-4,5-dimethylphenyl)-furan-2-yl)methylene)-3-methyl-5-oxopyrazol-1-yl)benzoic acid]
[2]
  p300 HAT inhibition, result in words (analogs compared with C646): substantial reduction in potency
other
  melting point: 209 to 211 °C

## COC(=O)c1cc(C)c(C)cc1-c1ccc(/C=C2/CC(=O)N(c3ccc(C(=O)O)cc3)C2=O)o1 [Compound 6r, 2-{5-[1-(4-Carboxy-phenyl)-2,5-dioxo-pyrrolidin-3-ylidenemethyl]-furan-2-yl}-4,5-dimethyl-benzoic acid methyl ester]
[2]
  p300 HAT inhibition, result in words (analogs compared with C646): retains potency for p300 inhibition
other
  melting point: 290 to 291 °C

## N.N.[Cl][Pt][Cl] [cisplatin]
[3]; [5]
  decrease in cell number: 28%
[3]; [6]
  decrease in cell number: 35%

## CC1=NN(c2ccc(C(N)=O)cc2)C(=O)C1=Cc1ccc(-c2cc(C)c(C)cc2[N+](=O)[O-])o1 [Compound 6a, 4-(4,5-dihydro-3-methyl-4-((5-(4,5-dimethyl-2-nitrophenyl)furan-2-yl)methylene)-5-oxopyrazol-1-yl)benzamide]
[2]
  p300 HAT inhibition, result in words (analogs compared with C646): well tolerated
other
  melting point: 273 to 275 °C

## Cn1nnc2c(C(N)=O)ncn2c1=O [temozolamide]
[3]; [5]
  decrease in cell number: 31%
[3]; [6]
  decrease in cell number: 13%

## CC1=NN(c2ccc(C(=O)O)cc2)C(=O)C1Cc1ccc(-c2cc(C)c(C)cc2[N+](=O)[O-])o1 (stereo not shown) [Compound C37, 4-{4-[5-(4,5-Dimethyl-2-nitro-phenyl)-furan-2-ylmethyl]-3-methyl-5-oxo-4,5-dihydro-pyrazol-1-yl}-benzoic acid]
[2]
  p300 HAT inhibition, result in words (analogs compared with C646): does not detectably block p300 HAT activity; also recorded: did not detectably block p300 HAT activity; also recorded: devoid of p300 HAT inhibitory activity
[1]; 25 μM, 3 hours
  acetylation of H3 or H4, with and without TSA: no effect
[4]
  sensitivity of cell line to compound: resistant

## COC(=O)c1cc(C)c(C)cc1-c1ccc(/C=C2\C(=O)N(c3ccc(C(=O)O)cc3)N=C2C)o1 [Compound 6m, 4-(4,5-dihydro-4-((5-(4,5-dimethyl-2-methylbenzoate)furan-2-yl)methylene)-3-methyl-5-oxapyrazol-1-yl)benzoic acid]
[2]
  p300 HAT inhibition, result in words (analogs compared with C646): well tolerated
other
  melting point: 254 to 256 °C

From patent US9005670B2, “Use of histone acetyltransferase inhibitors as novel anti-cancer therapies” (The Johns Hopkins University, priority 2010, dated 2015)
